Experimental data: patent publication US12390460B2, “Treatment for obesity” (1GLOBE BIOMEDICAL CO., LTD., priority 2018, dated 2025)

What was measured:
[1] = Body weight, food/water intake and adverse effects in modified high-fat diet (HFD) obese mice; assay type: in vivo, C57B1/6J mice
Source text: In order to assess the in vivo efficacy of Compound 14-3, a preferred embodiment of the compound of the invention, in treating and ameliorating obesity and related diseases like the metabolic syndrome, a previously used modified high-fat diet (HFD) was employed to induce obesity and severe fatty liver disease in mice (Derdak et al. J of Hepatology 2013; 58(4):785-91).
Five-week-old male, C57B1/6J mice (12-18 per group, Jackson Laboratory, Bar Harbor, ME) were fed ad libitum with a modified high-fat or control diet (Bioserv, Frenchtown, NJ) for 15 weeks. […] We had verified the efficacy of this diet to induce obesity in various pilot studies. At the end of the 15-week long feeding regimen, this diet caused substantial weight gain in these mice.
After 15 weeks on the modified HFD, the mice were put on a Compound 14-3 (or control vehicle) dosing regimen, in which the introductory 5 mg/kg (p.o., t.i.w. for the first 3 weeks) dose was followed by the administration of 10 mg/kg (p.o., t.i.w. for an additional 5 weeks) therapeutic dose. During the course of the drug treatment, the animals were monitored daily for changes in body weight, food/water intake, and any adverse effects.

[2] = system: leptin; test: Serum leptin (ELISA); assay type: in vivo; conditions: HFD-fed mice, FIG. 7C
Source text: Since crosstalk between leptin and FGF21 has been proposed in connection with the anti-obesity effects of FGF21 and a suppressive effect of exogenous FGF21 on circulating leptin levels has been previously observed in non-human primates, we also measured serum leptin levels using a commercially available ELISA kit. As expected, changes in fat content in the Compound 14-3-treated HFD group were followed by decrease in serum levels of fat-derived ‘satiety’ hormone leptin, indicating improved leptin resistance resulting from treatment using a compound of the invention (FIG. 7C). Thus, lower circulation levels of leptin were most likely due to drug-induced reductions in the masses of fat depos. This finding can explain decrease in POMC gene expression in the hypothalamus, as leptin is capable to directly modulate hypothalamic melanocortin system by changing the activity of POMC neurons.

[3] = system: FGF21; test: Serum FGF21 (ELISA) and FGF21 gene expression; assay type: in vivo; conditions: HFD-fed mice
Source text: Many of the beneficial metabolic effect are linked to FGF21, and FGF21 itself may further enhance fatty acid oxidation (Xu J, et al. Diabetes (2009) 58(1):250-259; Li H, et al. Diabetes (2012) 61(4):797-806). We, therefore, also measured serum levels of FGF21 using a commercially available ELISA kit. […] Accordingly, in an aspect of the invention, Compound 14-3 treatment is utilized to increase fatty acid oxidation, resulting in decreased fat content in iWAT and eWAT, and decreased body weight in a subject.

[4] = Oral glucose tolerance test (OGTT); assay type: in vivo; conditions: HFD-fed mice, 5th week of treatment, vs vehicle
Experimental: (§1) The described beneficial changes in body composition improved all aspects of the metabolic syndrome, including the underlying insulin resistance. Therefore, to fully characterize this animal model, we also assessed insulin signaling on live animals on the 5th week of Compound 14-3-treatment by conducting oral glucose tolerance test (OGTT, FIGS. 9A-C) and intraperitoneal insulin tolerance test (ITT, FIGS. 9D-E).
(§2) Both the OGTT and ITT tests were carried out on mice that have been starved for 6 hours before the procedure to eliminate the effect of the last meal on the blood glucose level. In both tests, we measured fasting glucose levels 30 min before the start of the assay to define baseline conditions. In the OGTT assay, the mice had been gavaged with 2 g/kg glucose, dissolved in water. After administration of the glucose, blood glucose level was measured via tail vein nicking using a commercially available glucometer. The obtained data was plotted against time (FIG. 9A) and the area under curve (AUC) calculations were carried out (FIG. 9B). Additionally, the blood glucose level measured at 120 min after gavage was used to describe the overall glucose tolerance of the mice (FIG. 9C).

[5] = system: UCP1 and DIO2 in brown adipose tissue (BAT); test: Quantitative real-time PCR of markers of thermogenic brown adipose tissue activation; assay type: in vivo; conditions: HFD-fed mice, vs vehicle; FIG. 2C
Source text: Finally, the recruitment of brown adipose tissue (BAT) was examined. BAT is a well-know site for dissipating excess energy to prevent weight gain by inducing thermogenesis. Importantly, the expression levels of the two investigated markers of thermogenic BAT activation—UCP1 and DIO2—were not different in the two HFD-fed groups when measured by quantitative real-time PCR (FIG. 2C), indicating similar levels of BAT activation in response to HFD. These findings led us to conclude that for the weigh loss seen in the Compound 14-3-treated HFD-fed mice, other mechanisms are probably responsible.

[6] = system: white adipose tissue adipocytes; test: H & E staining and morphometry of eWAT and iWAT adipocytes; assay type: in vivo; conditions: HFD-fed mice
[7] = system: intestinal fat absorption; test: Fecal triglyceride content (biochemical kit) in HFD-fed mice; assay type: in vivo; conditions: 5th week of treatment, vs vehicle, FIG. 2A
Experimental: Referring to FIG. 2A, the fecal triglyceride content was assessed using a standard biochemical kit (Biovision, Mountain View, CA). Fecal samples were collected on the 5th week of the treatment over the course of three days. The fecal triglyceride content was normalized to fecal mass. […] Therefore, this mechanism cannot explain the observed significant weight loss in the drug-treated mice.

[8] = Intraperitoneal insulin tolerance test (ITT); assay type: in vivo; conditions: HFD-fed mice, 5th week of treatment, vs vehicle
Experimental: as §1
as §2, with “The obtained data was plotted against time (FIG. 9A) and the area under curve (AUC) calculations were carried out (FIG. 9B).” left out
In the ITT test, we have intraperitoneally administered […] human recombinant insulin (Humulin N, Eli Lilly, Cambridge, MA) at the start of the assay and blood glucose was similarly measured for 120 min. […]

[9] = Fat pad weights at euthanasia (body composition); assay type: in vivo; conditions: HFD-fed mice at euthanasia
Source text: In agreement with effects of Compound 14-3 seen in the above examples, favorable changes in the body composition of Compound 14-3-treated and HFD-fed mice were also observed at the time of euthanasia through gross examination.
The former anatomical site represents visceral fat depos, while the latter belongs to subcutaneous fat depo from the perspective of human health. Both of these changes were considered very substantial and beneficial in the anti-obesity effect profile of the compound of the invention.

[10] = mice, 5 then 10 mg/kg p.o. t.i.w.

CCN(CC)CCNC(=O)c1c(C)[nH]c(/C=C2\C(=O)Nc3ccc(-c4csc(-c5ccccc5)n4)cc32)c1C [Compound 14-3]
daily normalized caloric (food) intake ([1]; HFD-fed mice during treatment, FIG. 1C): not linked to decreased food intake
daily normalized water intake ([1]; HFD-fed mice during treatment, FIG. 1D): not linked to decreased
change in body weight during treatment ([1]; HFD-fed mice, 5 mg/kg p.o. t.i.w. 3 weeks then 10 mg/kg p.o. t.i.w. 5 weeks, FIG. 1A): not only prevented additional weight gain in the mice on HFD, but also triggered a gradual weight loss
difference in body weight vs control-vehicle-treated mice on HFD at the time of euthanasia ([1]; HFD-fed mice, 5 then 10 mg/kg p.o. t.i.w., 8 weeks, FIG. 1B): ~20%
behaviors or activities [1, 10]: No changes in behaviors or activities were observed
side effects [1, 10]: temporary, self-resolving, mild diarrhea seen in a couple of mice at the initiation of drug treatment
serum leptin levels [2]: decrease
serum FGF21 levels ([3]; ELISA, FIG. 7A): increased
FGF21 gene expression ([3]; FIG. 7B): increased
glucose tolerance (OGTT) ([4]; 6 h starved, 2 g/kg glucose gavage, FIG. 9A): markedly improved
area under curve during OGTT ([4]; FIG. 9B): smaller
blood glucose level at 120 min during OGTT ([4]; FIG. 9C): decreased
DIO2 expression level in BAT [5]: not different
UCP1 expression level in BAT [5]: not different
size of eWAT adipocytes ([6]; H & E staining of eWAT, FIG. 4A-4B): decrease in the size of adipocytes
size of iWAT adipocytes ([6]; H & E staining of iWAT, morphometry, FIG. 5A-5B): decrease in size of adipocytes
fecal triglyceride content normalized to fecal mass [7]: little difference
blood glucose levels in response to insulin (ITT) ([8]; i.p. insulin, 120 min, FIG. 9D): steeper drop
area under curve during ITT ([8]; FIG. 9E): smaller
epididymal fat pad weights ([9]; FIG. 3A): markedly decreased
epididymal fat/body weight ratio ([9]; FIG. 3B): markedly decreased
unilateral (inguinal) fat pad weights ([9]; FIG. 3C): markedly decreased
inguinal fat/body weight ratio ([9]; FIG. 3D): markedly decreased
